Data published in patent US8748598B2, “Analogs of 3-O-acetyl-11-keto-beta-boswellic acid” (Laila Nutraceuticals, priority 2004, dated 2014).
≈ marks a conversion by molar mass, not a printed value. Where two headings read alike, the source gives them in different places.

Columns and labels:
Jurkat = type: cell-based, human; parameters: minimum inhibitory concentration (MIC) Jurkat: unit not given here; details: for minimum inhibitory concentration (MIC) Jurkat: MTT assay
Procedure: (§1) MTT [3-(4,5-dimethylthiazol-2-yl)-2,5-diphenyltetrazolium bromide] incorporation based cell proliferation assay was performed as described previously (Reference). The cytotoxic efficacy of some analogs was evaluated in different cell lines by MTT cell proliferation assay kit (Roche Applied Sciences, Germany). The assay was carried out according to the instruction provided by the vendor. Briefly, in brief, equal numbers of cells was plated in 96-well flat-bottomed plates in 100 μl of medium and were exposed to different analogs selected from 1 to 63 at various concentrations up to 10 μg/ml for a period of three days. Vehicle control culture wells received only a maximum of 0.5% DMSO. Thereafter, 0.5 mg/ml of MTT reagent was added to each well and the microplate was incubated further for 4 h at 37° C. in presence of 5% CO2. Finally, the cells were solubilized by adding solubilizing solution and allowed to incubate at 37° C. overnight. After complete solubilization of the formazan crystals the absorbance was read at 540 nm in a microplate reader (BioRad, USA). The results (mean OD±SD) obtained from quadruplicate wells were used in calculation to determine the inhibition of cell proliferation (50% of inhibitory concentration, IC50) of the test compounds.
(§2) The cytotoxic properties of some analogs were evaluated by MTT incorporation assay. The methodology of the assay procedure was the same as mentioned in example 41.

PC3M = assay: Cytotoxicity MTT assay, PC3M; type: cell-based, human; parameters: minimum inhibitory concentration (MIC) PC3M: unit not given here; details: for minimum inhibitory concentration (MIC) PC3M: MTT assay
HePG2 = assay: Cytotoxicity MTT assay, HePG2; type: cell-based, human; parameters: unit not given here
Procedure: as §1, §2

MDA-MB-231 = assay: MTT cell proliferation assay, MDA-MB-231; type: cell-based, human; details: for IC50 / inhibition at 10 µg/mL: Homo sapiens, MDA-MB-231; for Inhibition of cell proliferation MDA-MB-231 (IC50): three days
Procedure: as §1, §2

MCF-7 = assay: MTT cell proliferation assay, MCF-7; type: cell-based, human; details: for Inhibition of cell proliferation MCF-7 (IC50): three days
Procedure: as §1, §2

[1] = tested on: Freund's Adjuvant-induced arthritis in Wistar Albino rats; assay: Freund's adjuvant-induced arthritis, paw edema; type: in vivo; details: 10 mg/kg daily oral for 30 days; edema 13 days after Freund's Adjuvant
Procedure: The Wistar Albino rats were divided into four groups with […] each group. The two treatment groups, each containing 6 animals, were orally supplemented with one of the two analogs namely glycinate of AKBA (10) or piperazine amide of AKBA (23) in 1% carbomethylcellulose (CMC) at a daily dose of 10 mg/kg for 30 days. The control group of animals received same volume of 1% CMC orally and a positive control group received 10 mg/kg daily dose of prednisolone for direct comparison. Following the 30 day treatment and one hour after the last dose all the animals were challenged with 0.1 mL of 1% solution of Freund's Adjuvant through a subcutaneous injection in the sub-plantar region of left hind paw. The paw volume was measured using a plethymograph. The difference between the paw volumes measured before and 13 days after the Freund's Adjuvant injection was taken as edema volume. The percentage inhibition was calculated by comparing the mean edema of the control group and treatment groups.

potato 5-lipoxygenase = assay: 5-Lipoxygenase enzyme inhibitory activity; type: biochemical
Procedure: 5-Lipoxygenase enzyme inhibitory activity was measured using the method of Schewe et al. (Adv Enzymol, Vol 58, 191-272, 1986), modified by Reddanna et. al., (Methods of Enzymology, Vol 187, 268-277, 1990). The assay mixture contained 80 μM linoleic acid and sufficient amount of potato 5-lipoxygenase in 50 mM phosphate buffer (pH 6.3). The reaction was initiated by the addition of enzyme buffer mix to linoleic acid and the enzyme activity was monitored as the increase in absorbance at 234 nm. The reaction was monitored for 120 sec and the inhibitory potential of the test substances (29, 31, 33, 34, 35, 36, 39, 40, 43, 44, 46, 47, 48, 49, 50, 54, 57, 59, 62 & 63) was measured by incubating various concentrations of test substances two minutes before the addition of linoleic acid. All assays were performed three times. Percentage inhibition was calculated by comparing the slope of the curve obtained for test substances with that of the control.

B16 = assay: MTT cell proliferation assay, B16; type: cell-based, mouse; details: Table 2; for Inhibition of cell proliferation B16 (IC50): three days
Procedure: as §1

A549 = assay: MTT cell proliferation assay, A549; type: cell-based, human; details: Table 2; for Inhibition of cell proliferation A549 (IC50): three days
Procedure: as §1

A375 = assay: MTT cell proliferation assay, A375; type: cell-based, human; details: Table 2; three days
Procedure: as §1

[2] = tested on: B16 F0 melanoma xenograft; assay: B16 F0 melanoma xenograft model; type: in vivo, C57B6J mice; details: 75 mg/kg daily intra-peritoneal, twelve days
Procedure: In vivo efficacy of LI-51255 against melanoma growth was evaluated in B16 F0 melanoma xenograft model of C57B6J mice. C57B6J mice of 6 weeks age (body weight 18-22 g) were purchased from National Institute of Nutrition (NIN), Hyderabad (India). Animals study protocols were approved by Institutional Ethics Committee (IAEC). All the studies were performed in compliance with the Committee for the Purpose of Control and Supervision of Experiments on Animals (CPCSEA) guidelines and OECD guidelines. Animals were allowed free access to standard feed and provided charcoal filtered and UV exposed water ad libitum. The animals were maintained at a controlled temperature (24-26° C.), humidity (45-70%), and 12 h/12 h of light/dark cycle.
To induce the melanoma tumor formation, sub-confluent B16F0 cells were harvested by brief trypsinization and 1×10^6 cells were injected subcutaneously in 0.2 mL phosphate-buffered saline. Drug treatment was started after development of palpable tumors (3-5 days after implantation of the cells). Drugs were prepared in phosphate-buffered saline (10% DMSO, v/v) and either 75 mg/kg of DTIC or different doses of LI-51255 (10 or 20 mg/kg) was administered daily through intra-peritoneal route. Vehicle treated control animals received only 10% DMSO in phosphate buffered saline. After twelve days of treatment, the animals were sacrificed by CO2 inhalation and tumors were excised and weighed.

SMILES | minimum inhibitory concentration (MIC) Jurkat (Jurkat) | minimum inhibitory concentration (MIC) PC3M (PC3M) | minimum inhibitory concentration (MIC) HePG2 (HePG2) | IC50 values MCF-7 (MCF-7; Table 4) | % inhibition at 10 μg/ml (potato 5-lipoxygenase) [%] | % inhibition at 25 μg/ml (potato 5-lipoxygenase) [%] | Inhibition of cell proliferation B16 (IC50) (B16) [µg/mL] | Inhibition of cell proliferation A375 (IC50) (A375) [µg/mL] | Inhibition of cell proliferation A549 (IC50) (A549) [µg/mL] | Inhibition of cell proliferation MDA-MB-231 (IC50) (MDA-MB-231; Table 2) [µg/mL] | Inhibition of cell proliferation MCF-7 (IC50) (MCF-7; Table 2) [µg/mL] | further results
COc1cc(C(=O)O[C@@H]2CC[C@@]3(C)C(CC[C@]4(C)C3C(=O)C=C3C5[C@@H](C)[C@H](C)CC[C@]5(C)CC[C@]34C)[C@@]2(C)C(=O)O)cc(O)c1O (some centres unmarked) [Analog 3] | 125 | 30 | 150 |  |  |  |  |  |  |  |  | cytotoxicity against PC3M (PC3M): significantly more potent
C[C@@H]1CC[C@]2(C)CC[C@]3(C)C(=CC(=O)C4[C@@]5(C)CC[C@@H](OC(=O)CN)[C@](C)(C(=O)O)C5CC[C@]43C)C2[C@H]1C (some centres unmarked) [Analog 10] | 50 | 50 | >150 |  |  |  |  |  |  |  |  | IC50 (MDA-MB-231; Table 4): 19.5 µg/mL (≈ 36.9 µM); IC50 (MCF-7; Homo sapiens, MCF7, Table 4): 26.9 µg/mL (≈ 51 µM); inhibition of paw edema [1]: 12%
C[C@H](N)C(=O)O[C@@H]1CC[C@@]2(C)C(CC[C@]3(C)C2C(=O)C=C2C4[C@@H](C)[C@H](C)CC[C@]4(C)CC[C@]23C)[C@@]1(C)C(=O)O (some centres unmarked) [Analog 11] | 50 | 30 | 100-150 |  |  |  |  |  |  |  |  | IC50 (MDA-MB-231; Table 4): 28.9 µg/mL (≈ 53.4 µM); IC50 (MCF-7; Homo sapiens, MCF7, Table 4): 33.3 µg/mL (≈ 61.5 µM)
CC(=O)OC1CC[C@@]2(C)C(CC[C@]3(C)C2C(=O)C=C2C4[C@@H](C)[C@H](C)CC[C@]4(C)CC[C@]23C)[C@@]1(C)C(N)=O (some centres unmarked) [Analog 19] | 10 | >150 | >150 | IC50 at 30.05 μg/ml |  |  |  |  |  |  |  | cytotoxicity against leukemia cells (Jurkat): highly potent selectively; Percentage Inhibition of cell proliferation MDA-MB-231 (MDA-MB-231; Table 4, 10 μg/ml): 38.72% at 10 μg/ml
CC(=O)O[C@@H]1CC[C@@]2(C)C(CC[C@]3(C)C2C(=O)C=C2C4[C@@H](C)[C@H](C)CC[C@]4(C)CC[C@]23C)[C@@]1(C)C(=O)NN (some centres unmarked) [Analog 20] | 50 | 10 | 40 |  |  |  |  |  |  |  |  | cytotoxicity against PC3M (PC3M): significantly more potent; inhibition at 10 µg/mL (MCF-7; Homo sapiens, MCF7, Table 4, 10 μg/ml, read-out: Percentage Inhibition of cell proliferation MCF-7): 44%
CC(=O)O[C@@H]1CC[C@@]2(C)C(CC[C@]3(C)C2C(=O)C=C2C4[C@@H](C)[C@H](C)CC[C@]4(C)CC[C@]23C)[C@@]1(C)C(=O)N(C)C (some centres unmarked) [Analog 31] |  |  |  |  | 18.57 | 36.73 |  |  |  |  |  | inhibition at 10 µg/mL (B16; Mus musculus, B16, 10 ug/ml): 10%; inhibition at 10 µg/mL (A549; Homo sapiens, A549, 10 ug/ml): 17%; inhibition at 10 µg/mL (MDA-MB-231; Table 2, 10 ug/ml, read-out: Inhibition of cell proliferation MDA-MB-231, % at 10 ug/ml): 46%; inhibition at 10 µg/mL (MDA-MB-231; Table 4, 10 μg/ml, read-out: Percentage Inhibition of cell proliferation MDA-MB-231): 46%
CC(=O)O[C@@H]1CC[C@@]2(C)C(CC[C@]3(C)C2C(=O)C=C2C4[C@@H](C)[C@H](C)CC[C@]4(C)CC[C@]23C)[C@@]1(C)C(=O)NCCCCCCN (some centres unmarked) [Analog 33] |  |  |  |  | 24.66 | 52.98 | 9.1 |  |  |  |  | Inhibition of cell proliferation A549, % at 10 ug/ml (A549; 10 ug/ml): 24% at 10; Inhibition of cell proliferation MCF-7, % at 10 ug/ml (MCF-7; Table 2, 10 ug/ml): 36% at 10; Percentage Inhibition of cell proliferation MCF-7 (MCF-7; Table 4, 10 μg/ml): 36% at 10 μg/ml
CC(=O)O[C@@H]1CC[C@@]2(C)C(CC[C@]3(C)C2C(=O)C=C2C4[C@@H](C)[C@H](C)CC[C@]4(C)CC[C@]23C)[C@@]1(C)C(=O)NCCCCN (some centres unmarked) [Analog 34] |  |  |  | IC50 at 13.7 μg/ml | 16.31 | 29.40 | 3.84 | 4.12 | 10.5 | 6.38 | 13.7 | IC50 values MDA-MB-231 (MDA-MB-231; Table 4): IC50 at 6.38 μg/ml
CC(=O)O[C@@H]1CC[C@@]2(C)C(CC[C@]3(C)C2C(=O)C=C2C4[C@@H](C)[C@H](C)CC[C@]4(C)CC[C@]23C)[C@@]1(C)C(=O)NCCCCCCCN (some centres unmarked) [Analog 35] |  |  |  | IC50 at 9.7 μg/ml | 24.92 | 52.48 | 2.82 | 2.76 | 5.86 | 5.14 | 9.7 | IC50 values MDA-MB-231 (MDA-MB-231; Table 4): IC50 at 5.14 μg/ml
C[C@@H]1CC[C@]2(C)CC[C@]3(C)C(=CC(=O)C4[C@@]5(C)CC[C@@H](O)[C@](C)(C(=O)N6CCOCC6)C5CC[C@]43C)C2[C@H]1C (some centres unmarked) [Analog 36] |  |  |  | IC50 at 8.7 μg/ml | 17.83 | 34.40 | 2.44 | 2.75 | 4.78 | 3.4 | 8.7 | IC50 values MDA-MB-231 (MDA-MB-231; Table 4): IC50 at 3.4 μg/ml
CC(=O)O[C@@H]1CC[C@@]2(C)C(CC[C@]3(C)C2C(=O)C=C2C4[C@@H](C)[C@H](C)CC[C@]4(C)CC[C@]23C)[C@@]1(C)C(=O)NCCNC=O (some centres unmarked) [Analog 48] |  |  |  |  | 22.78 | 54.18 | 4.35 | 3.53 | 6.83 | 4.98 | 12.5 | Percentage Inhibition of cell proliferation MDA-MB-231 (MDA-MB-231; Table 4, 10 μg/ml): 8.8% at 10 μg/ml
CN(C)/N=N/c1[nH]cnc1C(N)=O [DTIC, Dacarbazine, reference compound] |  |  |  |  |  |  |  |  |  |  |  | % reduction of tumor burden (w.r.t control) [2]: 33.613%; Average weight of tumor [2]: 4.175 gm; % reduction of tumor burden (w.r.t control) ([2]; listed as Dacarbazine): 33.6%
C[C@]12C=CC(=O)C=C1CC[C@@H]1[C@@H]2[C@@H](O)C[C@@]2(C)[C@H]1CC[C@]2(O)C(=O)CO [prednisolone, reference compound] |  |  |  |  |  |  |  |  |  |  |  | inhibition of paw edema [1]: 16.8%
